Laboratory results: patent publication US20080176787A1, “Parathyroid hormone analogues and methods of use” (priority 2005, published 2008)
Positions of bridges follow the written chain, without caps; N, C: chain ends. Residues, ends and D or L forms follow the SMILES beside them.

Key:
[1] = tested on: post-menopausal women with low bone mineral density; test: Dose/weight cutoff subgroup analysis and modeling of Phase II 30 and 45 μg cohorts; type: in vivo, human; conditions: for Headache / HyperCa > 2.65 / HyperCa > 2.75 / N + H / Nausea: unit assumed
Procedure: The effect of the dose optimization strategy was evaluated by performing subgroup analyses using actual data from the 30 and 45 μg cohorts of the study (i.e. creation of a new subgroup by combining all patients below the weight cutoff from the 30 μg dose group with all patients above the weight cutoff from the 45 μg dose group, shown in the table below).
A variety of new subgroups were created out of the patients who participated in the Phase II clinical trial. The groups from Phase II are shown above, where each group received a single dose, either 7.5 μg, 15 μg, 30 μg, 45 μg, or placebo. The 30 μg and 45 μg dose groups were re-grouped, according to the weight of the patient, and over 100 new sub-groups were created. This approach of creating new sub-groups out of dosages which are relatively close to each other, is a novel way of conducting Phase II studies.
For the 105 patients who were originally given 30 or 45 μg, new groups were created by utilizing multiple weight cut-offs in increments of 0.5 kg. For example, one new group had the weight cut-off at 59 kg, meaning that every patient from the original low dose (30 μg) group who weighed less than 59 kg and every patient who weighed more than 59 kg from the original high dose (45 μg) group formed a new cohort. This new cohort represents a dose/weight cut-off of 59 kg, a group in which patients weighing less than 59 kg receive the low dose (30 μg) and patients weighing more than 59 kg receive the high dose (45 μg). Another example can be illustrated using a weight cutoff of 68 kg. Such a group would include all those patients who weigh less than 68 kg and who originally received the low dose (30 μg) as well as all those patients who weigh more than 68 kg and who originally received the high dose (45 μg). By using this method, over 100 separate cohorts were created by altering the dose/weight cut-off in increments of 0.5 kg. A summary of the data generated by these new dose/weight cut-off cohorts, using 68 kg and 59 kg as the dose/weight cut-off, is shown in the table below.
The table above illustrates the actual clinical profile obtained for two dose/weight cutoffs (59 kg which produces a higher exposure profile since more patients receive the higher dose and 68 kg in which more patients receive the lower dose). […] One problem with simple subgroup analysis is that endpoints with a small number of events can skew the observed profile because of large changes in incidence when one of these events moves from one side of the weight cutoff to the other. Therefore, the dose/weight cutoff methodology was applied systematically to the data from the 30 and 45 μg dose groups starting at the lowest weight patient in the study (corresponds to the 45 μg profile because everyone receives the high dose) and increasing the cutoff by 0.5 kg increments through 100 kg (corresponding to the 30 μg profile because everyone receives the low dose). The multiple cutoff profiles thus obtained when graphed can then smooth out the effect of individual events as illustrated for the effect on hypercalcemia. The effect of weight cutoff on clinical profile can then be modeled to eliminate the skewing effects of individual data points as illustrated in FIG. 37-40. This approach has been applied to primary and secondary endpoints in the study.
An important benefit of this modeling is that it is possible to project a clinical profile for a specific weight cutoff/dose exposure window with a high degree of accuracy since the effect of individual events is eliminated. The anticipated hypercalcemia and lumbar spine BMD profile for a 68 kg cutoff is illustrated in the table below, which compares the modeled hypercalcemia and lumbar spine BMD changes and the actual Phase II data for the 68 kg weight cutoff. It will also be possible to model the effects of even narrower exposure windows by using multiple dose cutoffs and different doses.

[2] = tested on: rats; test: Rat oncogenicity study, 104 weeks subcutaneous; type: in vivo; conditions: 0.5, 5, 30, and 50 μg/kg/day SC
Procedure: Prior art PTHs cause osteosarcomas in animals if administered over a course of two years. The PTH peptides of the present invention, including Ostabolin-C™ and PTH 1-30, are administered subcutaneously to rats for 104 weeks at doses of 0.5, 5, 30, and 50 μg/kg/day. The test article is administered subcutaneously. […] This difference could be due to the different amino acids sequences and/or to the different signalling pathways activated by the PTH molecules.

In the case of `CC[C@H](C)[C@H](NC(=O)[C@H](CCC(=O)O)NC(=O)[C@H](CO)NC(=O)[C@@H](NC(=O)[C@@H](N)CO)C(C)C)C(=O)N[C@@H](CCC(N)=O)C(=O)N[C@@H](CC(C)C)C(=O)N[C@@H](CCSC)C(=O)N[C@@H](Cc1c[nH]cn1)C(=O)N[C@@H](CC(N)=O)C(=O)N[C@@H](CC(C)C)C(=O)NCC(=O)N[C@@H](CCCCN)C(=O)N[C@@H](Cc1c[nH]cn1)C(=O)N[C@@H](CC(C)C)C(=O)N[C@@H](CC(N)=O)C(=O)N[C@@H](CO)C(=O)N[C@@H](CCSC)C(=O)N[C@@H](CCC(=O)O)C(=O)N[C@@H](CCCN=C(N)N)C(=O)N[C@H](C(=O)N[C@H]1CCC(=O)NCCCC[C@@H](C(=O)N[C@@H](CC(C)C)C(=O)N[C@@H](CC(C)C)C(=O)N[C@@H](CCC(N)=O)C(=O)N[C@@H](CC(=O)O)C(=O)N[C@H](C(N)=O)C(C)C)NC(=O)[C@H](CCCN=C(N)N)NC(=O)[C@H](CC(C)C)NC(=O)[C@H](Cc2c[nH]c3ccccc23)NC1=O)C(C)C` [Ostabolin-C, [Leu^27]cyclo[Glu^22-Lys^26]-PTH-(1-31)-NH2] (H-SVSEIQLMHNLGKHLNSMERVEWLRKLLQDV-NH2; lactam 22-26), the “% of hypercalcemia” value ([1]; 4 months, weight cutoff of approximately 68 kg (FIG. 37)) is reported as “less than 15%”, the “Sitting HR” value ([1]; 59 kg cut) is reported as 4.1 and the Headache ([1]; 59 kg cut) is reported as 20.6%. For the same compound, the HyperCa > 2.65 ([1]; 59 kg cut) was 22%, the HyperCa > 2.75 ([1]; 59 kg cut) was 6% and the N + H ([1]; 59 kg cut) was 12.7%. For the same compound, the Nausea ([1]; 59 kg cut) was 31.7%, the “Sitting HR” value ([1]; 68 kg cut) was 3.1 and the Headache ([1]; 68 kg cut) was 12.8%. The HyperCa > 2.65 ([1]; 68 kg cut) was 12.8%, the HyperCa > 2.75 ([1]; 68 kg cut) was 7.7% and the N + H ([1]; 68 kg cut) was 10.6%. For the same compound, the Nausea ([1]; 68 kg cut) was 31.9%, the HyperCa > 2.65 ([1]; 68 kg cutoff, modeled) was 14.8% and the HyperCa > 2.75 ([1]; 68 kg cutoff, modeled) was 7.6%. For the same compound, the “incidence of osteosarcomas compared to prior art PTH peptides” value [2] was “lower incidences of osteosarcomas”.
